Measured values as given in patent publication US8962842B2, “2-pyridone antimicrobial compositions” (priority 2010, dated 2015).
Read-outs that look alike come from different tables or passages of the source.

Columns and labels:
[1] = Mouse pharmacokinetics, intravenous or oral 10 mg/kg (Table 9); assay type: in vivo; details: mice, plasma; for half-life: read-out: Elimination Half life (converted)
Experimental: Groups of 21 mice were treated with select examples at 10 mg/kg. Mice were treated either intravenously or orally (by gavage). At predetermined time points (0.25, 0.5, 1, 2, 4, 8 and 24 hours), 3 mice were sacrificed and blood samples drawn by cardiac puncture. Plasma was obtained by centrifugation and stored at −80° C. Plasma samples were analyzed by LC-MS for remaining amounts of compounds.

[2] = system: Acinetobacter baumannii (12 strains); test: MIC range, broader panel of Quotient Bioresearch strains (Table 4); assay type: cell-based; details: for MIC50: read-out: MIC Range Median, Acinetobacter baumannii (12 strains)
[3] = system: Burkholderia cepacia (5 strains); test: as above; assay type: cell-based; details: for MIC50: read-out: MIC Range Median, Burkholderia cepacia (5 strains)
[4] = system: Pseudomonas aeruginosa (12 strains); test: as above; assay type: cell-based; details: for MIC50: read-out: MIC Range Median, Pseudomonas aeruginosa (12 strains)
[5] = system: Haemophilus influenza (5 strains); test: as above; assay type: cell-based, Haemophilus influenzae; details: for MIC50: 16 h, Median of the strain panel
[6] = system: Klebsiella pneumonia (4 strains); test: as above; assay type: cell-based; details: Klebsiella pneumoniae; for MIC50: read-out: MIC Range Median, Klebsiella pneumonia (4 strains)
[7] = system: Staphylococcus aureus (16 strains); test: MIC range, broader panel of Quotient Bioresearch strains (Table 3); details: for MIC50: read-out: MIC Range Median, Staphylococcus aureus (16 strains)
[8] = system: Enterococcus faecalis (5 strains); test: as above; details: for MIC50: read-out: MIC Range Median, Enterococcus faecalis (5 strains)
[9] = system: Group C Streptococcus (4 strains); test: as above; details: for MIC50: read-out: MIC Range Median, Group C Streptococcus (4 strains)
[10] = system: Escherichia coli (6 strains); test: MIC range, broader panel of Quotient Bioresearch strains (Table 4); assay type: cell-based; details: for MIC50: read-out: MIC Range Median, Escherichia coli (6 strains)
[11] = system: Streptococcus pyogenes (4 strains); test: MIC range, broader panel of Quotient Bioresearch strains (Table 3); details: for MIC50: read-out: MIC Range Median, Streptococcus pyogenes (4 strains)
[12] = system: Enterococcus faecium (3 strains); test: as above; details: for MIC50: read-out: MIC Range Median, Enterococcus faecium (3 strains)
[13] = system: Streptococcus pneumonia (5 strains); test: as above; details: Streptococcus pneumoniae; for MIC50: read-out: MIC Range Median, Streptococcus pneumonia (5 strains)
[14] = read-out: MIC Range High, Acinetobacter baumannii (12 strains)
[15] = read-out: MIC Range Low, Acinetobacter baumannii (12 strains)
[16] = read-out: MIC Range High, Burkholderia cepacia (5 strains)
[17] = read-out: MIC Range Low, Burkholderia cepacia (5 strains)
[18] = read-out: MIC Range High, Pseudomonas aeruginosa (12 strains)
[19] = read-out: MIC Range Low, Pseudomonas aeruginosa (12 strains)
[20] = High of the strain panel, read-out: MIC Range High, Haemophilus influenza (5 strains)
[21] = Low of the strain panel, read-out: MIC Range Low, Haemophilus influenza (5 strains)
[22] = read-out: MIC Range High, Klebsiella pneumonia (4 strains)
[23] = read-out: MIC Range Low, Klebsiella pneumonia (4 strains)
[24] = read-out: MIC Range High, Staphylococcus aureus (16 strains)
[25] = read-out: MIC Range Low, Staphylococcus aureus (16 strains)
[26] = read-out: MIC Range High, Enterococcus faecalis (5 strains)
[27] = read-out: MIC Range Low, Enterococcus faecalis (5 strains)
[28] = read-out: MIC Range High, Group C Streptococcus (4 strains)
[29] = read-out: MIC Range Low, Group C Streptococcus (4 strains)
[30] = read-out: MIC Range High, Escherichia coli (6 strains)
[31] = read-out: MIC Range Low, Escherichia coli (6 strains)
[32] = read-out: MIC Range High, Streptococcus pyogenes (4 strains)
[33] = read-out: MIC Range Low, Streptococcus pyogenes (4 strains)
[34] = read-out: MIC Range High, Enterococcus faecium (3 strains)
[35] = read-out: MIC Range Low, Enterococcus faecium (3 strains)
[36] = read-out: MIC Range High, Streptococcus pneumonia (5 strains)
[37] = read-out: MIC Range Low, Streptococcus pneumonia (5 strains)

Question: With `Cc1c(-c2ccc(N)c(F)c2)ccn2c(=O)c(C(=O)[O-])cc(C3CC3)c12.[K+]` [Ex. 2 K salt] as the compound, how does the half-life ([1]; iv, i.v.) read?
Answer: The half-life was 1.48 h.

Question: What about the AUC(0-inf) ([1]; iv) of the same compound?
Answer: Its AUC(0-inf) is 1340 ng·h/mL.

Question: And the Cmax ([1]; iv)?
Answer: Its Cmax is 2100 ng/mL.

Question: And the bioavailability ([1]; po, p.o. vs i.v.)?
Answer: The bioavailability was 47.8%.

Question: What about the half-life ([1]; po, p.o.) of the same compound?
Answer: Its half-life is 1.51 h.

Question: What about the AUC(0-inf) ([1]; po) of the same compound?
Answer: Its AUC(0-inf) is 642 ng·h/mL.

Question: What about the Cmax ([1]; po) of the same compound?
Answer: Its Cmax is 394 ng/mL.

Question: With `Cc1c(-c2ccc(C(N)=O)cc2)c(F)cn2c(=O)c(C(=O)[O-])cc(C3CC3)c12.[K+]` [Example 6 K salt, potassium 8-(4-carbamoyl-phenyl)-1-cyclopropyl-7-fluoro-9-methyl-4-oxo-4H-quinolizine-3-carboxylate] as the compound, how does the MIC [2, 14] read?
Answer: Its MIC is greater than 32 µg/mL.

Question: And the MIC [2, 15]?
Answer: Its MIC is 1 µg/mL.

Question: And the MIC50 [2]?
Answer: Its MIC50 is greater than 32 µg/mL.

Question: And the MIC [3, 16]?
Answer: Its MIC is 4 µg/mL.

Question: And the MIC [3, 17]?
Answer: The MIC was 1 µg/mL.

Question: What about the MIC50 [3] of the same compound?
Answer: The MIC50 was 2 µg/mL.

Question: And the MIC [4, 18]?
Answer: The MIC was greater than 32 µg/mL.

Question: And the MIC [4, 19]?
Answer: The MIC was 8 µg/mL.

Question: And the MIC50 [4]?
Answer: Its MIC50 is greater than 32 µg/mL.

Question: And the MIC50 [5]?
Answer: The MIC50 was 0.03 µg/mL.

Question: And the MIC [5, 20]?
Answer: Its MIC is 0.06 µg/mL.

Question: And the MIC [5, 21]?
Answer: The MIC was 0.03 µg/mL.

Question: What about the MIC [6, 22] of the same compound?
Answer: Its MIC is greater than 32 µg/mL.

Question: What about the MIC [6, 23] of the same compound?
Answer: The MIC was 1 µg/mL.

Question: What about the MIC50 [6] of the same compound?
Answer: The MIC50 was greater than 32 µg/mL.

Question: And the MIC [7, 24]?
Answer: Its MIC is 1 µg/mL.

Question: And the MIC [7, 25]?
Answer: Its MIC is 0.03 µg/mL.

Question: And the MIC50 [7]?
Answer: Its MIC50 is 0.5 µg/mL.

Question: And the MIC [8, 26]?
Answer: The MIC was 4 µg/mL.

Question: What about the MIC [8, 27] of the same compound?
Answer: Its MIC is 0.12 µg/mL.

Question: And the MIC50 [8]?
Answer: Its MIC50 is 0.25 µg/mL.

Question: What about the MIC [9, 28] of the same compound?
Answer: The MIC was 0.12 µg/mL.

Question: And the MIC [9, 29]?
Answer: Its MIC is 0.06 µg/mL.

Question: And the MIC50 [9]?
Answer: The MIC50 was 0.12 µg/mL.

Question: And the MIC [10, 30]?
Answer: Its MIC is greater than 32 µg/mL.

Question: What about the MIC [10, 31] of the same compound?
Answer: The MIC was 0.25 µg/mL.

Question: And the MIC50 [10]?
Answer: Its MIC50 is greater than 32 µg/mL.

Question: And the MIC [11, 32]?
Answer: Its MIC is 0.25 µg/mL.

Question: And the MIC [11, 33]?
Answer: The MIC was 0.12 µg/mL.

Question: And the MIC50 [11]?
Answer: The MIC50 was 0.12 µg/mL.

Question: And the MIC [12, 34]?
Answer: Its MIC is 8 µg/mL.

Question: What about the MIC [12, 35] of the same compound?
Answer: The MIC was 1 µg/mL.

Question: And the MIC50 [12]?
Answer: Its MIC50 is 2 µg/mL.

Question: What about the MIC [13, 36] of the same compound?
Answer: Its MIC is 0.25 µg/mL.

Question: And the MIC [13, 37]?
Answer: Its MIC is 0.25 µg/mL.

Question: What about the MIC50 [13] of the same compound?
Answer: The MIC50 was 0.25 µg/mL.

Question: Which MIC [2, 14] does the source give for `Cc1c(-c2cc(F)c(N)c(F)c2)ccn2c(=O)c(C(=O)[O-])cc(C3CC3)c12.[K+]` [Example 39 K salt, potassium 8-(4-amino-3,5-difluoro-phenyl)-1-cyclopropyl-9-methyl-4-oxo-4H-quinolizine-3-carboxylate] here?
Answer: Its MIC is 16 µg/mL.

Question: And the MIC [2, 15]?
Answer: Its MIC is 0.06 µg/mL.

Question: And the MIC50 [2]?
Answer: The MIC50 was 4 µg/mL.

Question: What about the MIC [3, 16] of the same compound?
Answer: The MIC was 0.5 µg/mL.

Question: What about the MIC [3, 17] of the same compound?
Answer: Its MIC is 0.06 µg/mL.

Question: And the MIC50 [3]?
Answer: The MIC50 was 0.25 µg/mL.

Question: What about the MIC [4, 18] of the same compound?
Answer: The MIC was 16 µg/mL.

Question: What about the MIC [4, 19] of the same compound?
Answer: The MIC was 0.5 µg/mL.

Question: What about the MIC50 [4] of the same compound?
Answer: The MIC50 was 4 µg/mL.

Question: And the MIC50 [5]?
Answer: Its MIC50 is no more than 0.015 µg/mL.

Question: And the MIC [5, 20]?
Answer: The MIC was no more than 0.015 µg/mL.

Question: What about the MIC [5, 21] of the same compound?
Answer: Its MIC is no more than 0.015 µg/mL.

Question: What about the MIC [6, 22] of the same compound?
Answer: The MIC was 32 µg/mL.

Question: What about the MIC [6, 23] of the same compound?
Answer: The MIC was 0.12 µg/mL.

Question: And the MIC50 [6]?
Answer: The MIC50 was 9 µg/mL.

Question: And the MIC [7, 24]?
Answer: Its MIC is 0.12 µg/mL.

Question: And the MIC [7, 25]?
Answer: The MIC was no more than 0.015 µg/mL.

Question: What about the MIC50 [7] of the same compound?
Answer: Its MIC50 is 0.06 µg/mL.

Question: What about the MIC [8, 26] of the same compound?
Answer: Its MIC is 0.5 µg/mL.

Question: What about the MIC [8, 27] of the same compound?
Answer: Its MIC is no more than 0.015 µg/mL.

Question: And the MIC50 [8]?
Answer: Its MIC50 is 0.03 µg/mL.

Question: And the MIC [9, 28]?
Answer: Its MIC is 0.12 µg/mL.

Question: And the MIC [9, 29]?
Answer: Its MIC is 0.03 µg/mL.

Question: And the MIC50 [9]?
Answer: Its MIC50 is 0.09 µg/mL.

Question: What about the MIC [10, 30] of the same compound?
Answer: Its MIC is 16 µg/mL.

Question: And the MIC [10, 31]?
Answer: Its MIC is no more than 0.015 µg/mL.

Question: And the MIC50 [10]?
Answer: The MIC50 was 12 µg/mL.

Question: What about the MIC [11, 32] of the same compound?
Answer: Its MIC is 0.25 µg/mL.

Question: And the MIC [11, 33]?
Answer: The MIC was 0.06 µg/mL.

Question: What about the MIC50 [11] of the same compound?
Answer: Its MIC50 is 0.12 µg/mL.

Question: What about the MIC [12, 34] of the same compound?
Answer: The MIC was 1 µg/mL.

Question: And the MIC [12, 35]?
Answer: Its MIC is 0.12 µg/mL.

Question: And the MIC50 [12]?
Answer: The MIC50 was 0.5 µg/mL.

Question: And the MIC [13, 36]?
Answer: The MIC was 0.25 µg/mL.

Question: And the MIC [13, 37]?
Answer: The MIC was 0.12 µg/mL.

Question: And the MIC50 [13]?
Answer: Its MIC50 is 0.12 µg/mL.

Question: What does the source list for `Cc1c(-c2ccc(N)nc2)ccn2c(=O)c(C(=O)[O-])cc(C3CC3)c12.[K+]` [Ex. 21 K salt]?
Answer: half-life ([1]; iv, i.v.): 1.31 h; Cmax ([1]; iv): 467 ng/mL; half-life ([1]; po, p.o.): 2.11 h; AUC(0-inf) ([1]; po): 471 ng·h/mL; Cmax ([1]; po): 242 ng/mL
